For this test, the system named is A498 complex spheroid viability. As to the kind of experiment: Anticancer human tumor A498 cell line growth inhibition.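 On all read-outs here: spheroids exposed to agents for seven days before readout.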 Particulars: for viability, T/C: stronger effect = lower value. From the text: Multicellular complex tumor spheroid response to LSD1 Inhibitor Iadademstat in combination with a variety of drugs and investigational agents in selected tumor cell lines
The current study was undertaken to assess response to LSD1 inhibitors in combination with standard-of-care drugs and investigational agents in solid tumor complex spheroid models as well as in the K-562 leukemia. Complex spheroids include a stromal component modeled by human endothelial cells (HUVEC) and fibroblasts modeled by human mesenchymal stem cells (MSCs). The concentration ranges selected for each drug and investigational agent were based upon clinically achievable concentrations if the clinical Cmax of the agent was known.
Compounds. The drugs and investigational agents used in this study are listed on Table 1. All of the agents used, including staurosporine (NSC755774) and gemcitabine (NSC613327), were obtained from the Developmental Therapeutics Program, NCI. FDA-approved anticancer drugs are available from the NCI at http://dtp.nci.nih.gov/branches/dscb/oncology_drugset_explanation.html. Drugs and investigational agents were >95% pure by proton nuclear magnetic resonance (NMR) and liquid chromatography/mass spectrometry (LC/MS). Stock solutions were prepared at 400x in DMSO, stored at -70 degrees C, and diluted in fresh medium prior to their use. The final concentration of DMSO in cell culture wells never exceeded 0.25% (v/v). The FDA-approved anticancer drug set is available from the Developmental Therapeutics Program at https://dtp.cancer.gov/organization/dscb/obtaining/available_plates.htm. All drugs and investigational agents were tested over a range starting from a high concentration at or near the clinical Cmax and decreasing in half-log increments. If the clinical Cmax for an agent had not been determined, the highest concentration tested was 10 microM.
Cell Lines. The patient-derived cancer cell (PDC) lines: 292921-168-R-J2-PDC, K24384-001-R-PDC, and 521955-158-R2-J5-PDC pancreatic carcinomas, 556581-035-R-J1 ovarian carcinoma, 324938-238-R-J1-PDC, 855422-203-R-J1-PDC and 883617-216-R-J1-PDC urothelial bladder carcinomas, 743489-274-T-PDC renal cell carcinoma, 138582-R-J1 Merkel cell tumor, K60290-347-R-J1 and K57222-313-R-J1-PDC glioblastomas, 653999-131-R-J2-PDC, LG0703-F948-PDC, and 349418-098-R-PDC non-small cell lung carcinomas, 885512-296-R-J2-PDC, 171881-019-R-J1-PDC breast carcinomas and 186277-243-T-J2-PDC and 233499-124-R-J2-PDC colon carcinomas were obtained from the NCI Patient-Derived Models Repository (PDMR, https://pdmr.cancer.gov). The established cell lines NCI/ADR-RES (RRID:CVCL_14520 and OVCAR-5 (RRID:CVCL_1628) ovarian carcinomas, 786-O (RRID:CVCL_1051) and A498 (RRID:CVCL_A498) renal cell carcinoma, NCI-H211 (ATCC, cat. CRL-5824; RRID:CVCL_1529), NCI-H196 (ATCC, cat. CRL-5823, RRID:CVCL_1509), SW 1271 (ATCC, cat. CRL-2177, RRID:CVCL_1716) and NCI-H1876 (ATCC, cat. CRL-5902, RRID:CVCL_1503) small cell lung carcinomas, MDA-MB-231 (RRID:CVCL_0062) and MDA-MB-468 (RRID:CVCL_0419)breast carcinomas (10-12). Pooled donor human umbilical vein endothelial cells (HUVEC, Lonza, cat. CC-2519) and human mesenchymal stem cells (hMSC, Lonza, cat. PT-2501) were purchased from Lonza (Walkersville, MD).
Cell Culture. All cells were maintained in an incubator at 37 degrees C and 5% CO2 with 95% humidity. The PDC lines were cultured according to standard operating procedures established by the NCI PDMR (https://pdmr.cancer.gov). Briefly all PDCs were thawed and cultured in Matrigel-coated flasks prepared with a working solution of 1X Ham's F-12 nutrient mix, without supplementation (Invitrogen, Waltham, MA, cat. 11765054), 100 U/mL penicillin-streptomycin (Invitrogen, cat. 15140122), and 2.5% Matrigel (Corning Inc., Corning, NY, cat. 354248) for the first three passages. […]

Setting [1] is: curve of first compound, second compound 0.1 µM.
Setting [2] is: curve of first compound, second compound 0.316 µM.
The mark [3] stands for this setting: curve of first compound, second compound 1 µM.
[4] abbreviates: curve of first compound, second compound 3.16 µM.
The mark [5] stands for this setting: curve of first compound, second compound 10 µM.
Setting [6] is: second compound 0.1 µM, first compound 0.0316 µM.
The mark [7] stands for this setting: second compound 0.1 µM, first compound 0.1 µM.
Where [8] appears, read: second compound 0.316 µM, first compound 0.0316 µM.
Where [9] appears, read: second compound 0.316 µM, first compound 0.1 µM.
Where [10] appears, read: second compound 1 µM, first compound 0.0316 µM.
Setting [11] is: second compound 1 µM, first compound 0.1 µM.
The mark [12] stands for this setting: second compound 3.16 µM, first compound 0.0316 µM.
Setting [13] is: second compound 3.16 µM, first compound 0.1 µM.
The mark [14] stands for this setting: second compound 10 µM, first compound 0.0316 µM.
The mark [15] stands for this setting: second compound 10 µM, first compound 0.1 µM.

The source of these data is PubChem BioAssay AID1918947 (Molecular Pharmacology Branch, DTP, NCI, 2023).

Where “and” joins values, the source holds several entries; their conditions need not be identical. Equal values may be shown once.

In the case of `CC1COCCN1c1cc(C2(S(C)(=N)=O)CC2)nc(-c2ccnc3[nH]ccc23)n1` (stereo unspecified) + NC1CC1c1ccc(-c2cccc(O)c2)cc1, the IC50 under setting [1] was found to be 409 nM; the 50% inhibitory concentration (IC50) under setting [2] stood at 509 nM; the IC50 under setting [3] came out at 552 nM; the IC50 under setting [4] was determined as 503 nM; the IC50 under setting [5] worked out at 539 nM. In addition, the viability, T/C is 92% under setting [6]; 85.2% under setting [7]; 55.2% (second compound 0.1 µM, first compound 0.316 µM); 28% (second compound 0.1 µM, first compound 1 µM); 16.1% (second compound 0.1 µM, first compound 3.16 µM); 11.5% (second compound 0.1 µM, first compound 10 µM). Moreover, the viability, T/C reads like this: under setting [8], 97.8%; under setting [9], 96.8%; (second compound 0.316 µM, first compound 0.316 µM) 68.4%; (second compound 0.316 µM, first compound 1 µM) 23.9%; (second compound 0.316 µM, first compound 3.16 µM) 16.7%; (second compound 0.316 µM, first compound 10 µM) 15.6%. Besides, the viability, T/C is 86.7% under setting [10]; 94% under setting [11]; 69.9% (second compound 1 µM, first compound 0.316 µM); 28% (second compound 1 µM, first compound 1 µM); 15.1% (second compound 1 µM, first compound 3.16 µM); 10.6% (second compound 1 µM, first compound 10 µM). For the same molecule, the viability, T/C under setting [12] was 85.2%; the viability, T/C under setting [13] was 87.9%; the viability, T/C (second compound 3.16 µM, first compound 0.316 µM) is 63.9%; the viability, T/C (second compound 3.16 µM, first compound 1 µM) is 28.1%; the viability, T/C (second compound 3.16 µM, first compound 3.16 µM) was 16.8%; the viability, T/C (second compound 3.16 µM, first compound 10 µM) was 11.2%. The viability, T/C under setting [14] was 89.7%; the viability, T/C under setting [15] was 84.8%; the viability, T/C (second compound 10 µM, first compound 0.316 µM) was 63%; the viability, T/C (second compound 10 µM, first compound 1 µM) was 34%; the viability, T/C (second compound 10 µM, first compound 3.16 µM) is 17.8%; the viability, T/C (second compound 10 µM, first compound 10 µM) is 10.1%.

Turning to `CC(C)c1c(-c2ccccc2)nc2c(C#N)c[nH]n2c1=O`, the viability, T/C runs as follows: (compound 0.0316 µM) 101% and 102%; (compound 0.1 µM) 104% and 102%; (compound 0.316 µM) 101% and 104%; (compound 1 µM) 103% and 97.9%; (compound 3.16 µM) 102% and 107%; (compound 10 µM) 101% and 107%. Also, where the note is “curve of compound”, the half-maximal inhibitory concentration (IC50) is over 10000 nM.

Turning to `CC(C)CC(NC(=O)C(Cc1ccccc1)NC(=O)c1cnccn1)B(O)O` (stereo unspecified), the viability, T/C reads like this: (compound 0.000316 µM) 103%; (compound 0.001 µM) 59.9% and 22.5%; (compound 0.00316 µM) 3.38% and 2.52%; (compound 0.01 µM) 0.64% and 0.86%; (compound 0.0316 µM) 0.57% and 0.5%; (compound 0.1 µM) 0.31% and 0.36%. Further, under “curve of compound”, the IC50 is 1.22 nM and 0.674 nM.

Take `Cn1ncnc1C1c2n[nH]c(=O)c3cc(F)cc(c23)NC1c1ccc(F)cc1` (stereo unspecified) + NC1CCC(NC2CC2c2ccccc2)CC1: the IC50 is over 100 nM under setting [1]; over 100 nM under setting [2]; over 100 nM under setting [3]; over 100 nM under setting [4]; over 100 nM under setting [5]. In addition, the viability, T/C is 84% (second compound 0.1 µM, first compound 0.000316 µM); 88.1% (second compound 0.1 µM, first compound 0.001 µM); 82.7% (second compound 0.1 µM, first compound 0.00316 µM); 87.4% (second compound 0.1 µM, first compound 0.01 µM); 85.1% under setting [6]; 85.3% under setting [7]. In addition, the viability, T/C is 95.5% (second compound 0.316 µM, first compound 0.000316 µM); 95.5% (second compound 0.316 µM, first compound 0.001 µM); 95% (second compound 0.316 µM, first compound 0.00316 µM); 89% (second compound 0.316 µM, first compound 0.01 µM); 85.7% under setting [8]; 90.9% under setting [9]. In addition, the viability, T/C is, setting by setting: (second compound 1 µM, first compound 0.000316 µM) 84.2%; (second compound 1 µM, first compound 0.001 µM) 94.5%; (second compound 1 µM, first compound 0.00316 µM) 87%; (second compound 1 µM, first compound 0.01 µM) 84.2%; under setting [10], 78.5%; under setting [11], 81.3%. Further, the viability, T/C (second compound 3.16 µM, first compound 0.000316 µM) is 83.8%; the viability, T/C (second compound 3.16 µM, first compound 0.001 µM) was 85.3%; the viability, T/C (second compound 3.16 µM, first compound 0.00316 µM) is 85.3%; the viability, T/C (second compound 3.16 µM, first compound 0.01 µM) is 78.5%; the viability, T/C under setting [12] is 79.6%; the viability, T/C under setting [13] is 74.9%. Also, the viability, T/C is 77.2% (second compound 10 µM, first compound 0.000316 µM); 76.8% (second compound 10 µM, first compound 0.001 µM); 78.2% (second compound 10 µM, first compound 0.00316 µM); 74.9% (second compound 10 µM, first compound 0.01 µM); 75.8% under setting [14]; 65.3% under setting [15].

For `COc1cc(C2c3cc4c(cc3C(OC3OC5COC(C)OC5C(O)C3O)C3COC(=O)C23)OCO4)cc(OC)c1O` (stereo unspecified), the viability, T/C by setting is: (compound 0.00949 µM) 89.7% and 87%; (compound 0.03 µM) 92.9% and 75.5%; (compound 0.0949 µM) 82.8% and 70.3%; (compound 0.3 µM) 78.1% and 74.6%; (compound 0.949 µM) 68.8% and 57%; (compound 3 µM) 56.8% and 48.7%. Moreover, the IC50 (curve of compound) was > 3000 nM and 2640 nM.

One may read the IC50 as the point on the concentration scale where inhibition reaches its midpoint. The viability, T/C is the result in the treated group divided by that in the control group, in per cent.
